Measured values as given in patent publication US20180228815A1, “NARINGENIN AND ASIATIC ACID COMBINATION TREATMENT OF CANCERS” (The Chinese University of Hong Kong, priority 2016, published 2018).
Read-outs that look alike come from different tables or passages of the source.

What was measured:
[1] = type: in vivo
Experimental: FIG. 1. Determination of a safe dosage of AA or NG in normal mice. Groups of 4 normal mice were treated with different dosages of asiatic acid (AA) or naringenin (NG) for two weeks and various parameters were measured to determine a safe dosage for the use as therapeutic dose in cancer-bearing mice. As indicated by a highlighted box, AA at 10 mg/kg and NG at 50 mg/kg was selected. Each bar represents the mean±SEM for groups of 4 mice. * p<0.05, ** p<0.01 compared to untreated mice (BLK)
A safe dosage of HLPC-purified naringenin (NG) and asiatic acid (AA) was first determined in normal mice by peritoneal injection with different dosages of AA or NG for toxicity assays and a dose of AA at 10 mg/kg body weight and NG at 50 mg//Kg body weight is selected for further examination of the therapeutic efficacy on cancer (FIG. 1). The effects of combined use of a safe dosage of naringenin (NG, 10 mg/kg) and asiatic acid (AA, 50 mg/kg) at a ratio of […] was selected and the therapeutic effect on cancer was tested in two syngeneic mouse models of invasive lung carcinoma (LLC) and melanoma (B16F10). […] Thus, the combination of NG and AA presents as a new emerging and promising therapy for tumor.

B16F10 tumor cells = experiment: TGF-beta1-induced VEGF mRNA expression by tumor cells (real-time PCR); type: cell-based
p-Smad3, Smad7 = experiment: Western blot of p-Smad3 and Smad7 in bone marrow-derived NK cells with TGF-β1; type: cell-based, mouse; details: 10 μM of AA, 100 μM of NG; TGF-β1 (5 ng/ml)
Experimental: FIGS. 14A-14C. […] (FIGS. 14A, 14B) Two-color immunofluorescence detecting NK1.1+ p-Smad3+ and NK1.1+ Smad7+ NK cells in LLC tumor microenvironment. NK1.1+ cells (green), p-Smad3+ or Smad7+ cells (red), DAPI (blue). […] Scale bar, […]. […] To further explore the mechanism of combination therapy facilitating NK cell immunity against cancer in TGF-β rich microenvironment, 10 μM of AA and 100 μM of NG (according to the molar ratio in vivo) were applied on bone marrow-derived NK cells in vitro. […] After euthanasia, bone marrow cells were isolated from C57BL/6 mice following the protocol as previously described (10). Bone marrow cells were then seeded at the density of 1×10^6 cells/ml in MEMα medium (Gibco, Thermo Fisher Scientific Inc., MA, USA) containing 10% FBS supplemented with 1 ng/ml IL-7, 10 ng/ml Flt3L, 30 ng/ml SCF, 50 ng/ml IL-15 (Peprotech, NJ, USA) and […] β-Mercaptoethanol (Gibco, Thermo Fisher Scientific Inc., MA, USA) and cultured for 4 days. Then transferred cells to MEMα medium containing 10% FBS supplemented with 50 ng/ml IL-15, 20 ng/ml IL-2 and […] β-Mercaptoethanol to induce NK cells maturation for another 3 days. Tumor tissues and cultured NK cells were lysed with ice-cold RIPA buffer, and then protein was isolated as previously described (2 6). Membranes were blocked with 5% BSA in PBS for 1 hour at room temperature before incubated with primary antibodies against Smad7, Id2, β-actin (Santa Cruz Biotechnology, Santa Cruz, Calif., USA), p-Smad3 and IRF2 (Cell signaling, MA, USA) overnight at 4° C., subsequently incubated with IRDye 800-conjugated secondary antibodies (Rockland immunochemicals, PA, USA). Target protein expression was then detected by LiCor/Odyssey infrared image system (LI-COR Biosciences, NE, USA) and analyzed with Image J software (NIH, Bethesda, Md., USA).

Id2, IRF2 = experiment: Id2 and IRF2 expression in bone marrow-derived NK cells with TGF-β1 (real-time PCR, western blot); type: cell-based, mouse; details: bone marrow-derived NK cells in vitro
Experimental: After euthanasia, bone marrow cells were isolated from C57BL/6 mice following the protocol as previously described (10). Bone marrow cells were then seeded at the density of 1×10^6 cells/ml in MEMα medium (Gibco, Thermo Fisher Scientific Inc., MA, USA) containing 10% FBS supplemented with 1 ng/ml IL-7, 10 ng/ml Flt3L, 30 ng/ml SCF, 50 ng/ml IL-15 (Peprotech, NJ, USA) and […] β-Mercaptoethanol (Gibco, Thermo Fisher Scientific Inc., MA, USA) and cultured for 4 days. Then transferred cells to MEMα medium containing 10% FBS supplemented with 50 ng/ml IL-15, 20 ng/ml IL-2 and […] β-Mercaptoethanol to induce NK cells maturation for another 3 days. […] Tumor tissues and cultured NK cells were lysed with ice-cold RIPA buffer, and then protein was isolated as previously described (2 6). Membranes were blocked with 5% BSA in PBS for 1 hour at room temperature before incubated with primary antibodies against Smad7, Id2, β-actin (Santa Cruz Biotechnology, Santa Cruz, Calif., USA), p-Smad3 and IRF2 (Cell signaling, MA, USA) overnight at 4° C., subsequently incubated with IRDye 800-conjugated secondary antibodies (Rockland immunochemicals, PA, USA). Target protein expression was then detected by LiCor/Odyssey infrared image system (LI-COR Biosciences, NE, USA) and analyzed with Image J software (NIH, Bethesda, Md., USA).

[2] = Systemic toxicity in B16F10 melanoma-bearing mice; details: mouse, in vivo
From the text: FIG. 5. […] Each bar represents the mean±SEM for groups of 6 mice.

[3] = test system: bone marrow-derived NK cells; experiment: Flow cytometry of bone marrow-derived NK cell differentiation (NK1.1+ CD122+); type: cell-based, mouse; details: for inhibitory effect of TGF-β1 on NK cell development (NK1.1+ CD122+): TGF-β1 (5 ng/ml)
Experimental: FIGS. 15A-15B. Combination of AA and NG attenuates TGF-β1 induced inhibition on NK cell differentiation. […] (FIG. 15B) Flow cytometry detects that the effect of AA, NG, and their combination on bone marrow-derived NK differentiation in response to TGF-β1 (5 ng/ml). Each error bar represents the mean±SEM for groups of three independent experiments. *** p<0.001 compared to TGF-β1; ### p<0.001 as indicated.
After euthanasia, bone marrow cells were isolated from C57BL/6 mice following the protocol as previously described (10). Bone marrow cells were then seeded at the density of 1×10^6 cells/ml in MEMα medium (Gibco, Thermo Fisher Scientific Inc., MA, USA) containing 10% FBS supplemented with 1 ng/ml IL-7, 10 ng/ml Flt3L, 30 ng/ml SCF, 50 ng/ml IL-15 (Peprotech, NJ, USA) and […] β-Mercaptoethanol (Gibco, Thermo Fisher Scientific Inc., MA, USA) and cultured for 4 days. Then transferred cells to MEMα medium containing 10% FBS supplemented with 50 ng/ml IL-15, 20 ng/ml IL-2 and […] β-Mercaptoethanol to induce NK cells maturation for another 3 days.
Peripheral blood NK cells and cultured NK cells were analyzed using various markers as previously described (10), including rat anti-mouse CD16/CD32 antibody (BD Pharmingen, BD Biosciences, CA, USA), APC-conjugated anti-mouse NK1.1, PE-conjugated anti-mouse NKp46, PE-conjugated anti-mouse CD122 (eBioscience Inc., CA, USA) and Alexa 488-conjugated anti-mouse/human CD11b Antibody (Biolegend, CA, USA). After immunostaining, cells were resuspended with 200 μl staining buffer and analyzed with BD Accuri™ C6 Cytometer (BD Biosciences, CA, USA).

B16F10 melanoma = B16F10 melanoma syngeneic mouse tumor model, tumor growth; type: in vivo; details: for tumor growth at higher dosages: dosages higher than 10 mg/kg AA or 50 mg/kg NG; for B16F10 melanoma volume and weight: monotherapy, different doses; for melanoma progression: single treatment, 10 mg/kg AA or 50 mg/kg NG
From the text: B16F10 melanoma syngeneic tumor model was generated in C57/Bl6 male mice (aged week 8 and 25 g body weight) via subcutaneous injection of 1×10^6 B16F10 cells. Lewis Lung Cancer syngeneic tumor model was also generated in C57/Bl6 male mice via subcutaneous injection of 2×10^6 luciferase-labeled LLC cells. When average tumor size reached 50 mm^3, mice were randomly divided into four groups respectively receiving drug administration as described below. Tumor progression was monitored by calculating tumor volume with vernier calipers as well as by bioluminescence imaging with IVIS Spectrum system (Xenogen, PerkinElmer, Inc., MA, USA). All animal experiments were carried out by a protocol approved by Animal Ethics Experimental Committee at the Chinese University of Hong Kong. Two TCM-based drugs were used in this study, including asiatic acid (95% HLPC-purified, Nanning, China) and naringenin (98% HLPC-purified, Xian, China). Both drugs were dissolved in DMSO and Tween-80 at the ratio of 9:1, which was further diluted 10 times with saline as working solution. […] Studies were carried out by a protocol approved by Animal Ethics Experimental Committee at the Chinese University of Hong Kong.

B16F10 melanoma cells = experiment: NK cell cytotoxicity assay (LDH release); type: cell-based, mouse; details: E:T ratio of 5:1, 10:1 and 20:1
Experimental: It was next assessed whether the combination therapy enhances the tumor-killing capacity of NK cells by co-culturing […] NK cells with B16F10 melanoma cells at ratio of 5:1, 10:1 and 20:1. […] B16F10 melanoma cells were harvested as target cells and bone marrow-derived NK cells treated with AA or NG for 24 hours were harvested as effector cells. Cells were thoroughly washed and seeded in 96-well plates at the effector: target (E:T) ratios of 5:1, 10:1 and 20:1. Incubated in 5% CO2 incubator at 37° C. for 6 hours then detect the LDH release of each well with CytoTox 96® Non-Radioactive Cytotoxicity Assay kit (Promega Corporation, WI, USA). Read absorbance at 490 nm and calculated the percentage of NK cell mediated cytotoxicity with the following formula.

NK1.1+ NK cells = experiment: Two-color immunofluorescence of IFN-γ+ and granzyme B+ NK cells in LLC tumor microenvironment; type: in vivo, mouse
Experimental: FIGS. 13A-13G. […] NK1.1+ cells (green), IFN-γ+ or granzyme B+ cells (red), DAPI (blue). Each error bar represents the mean±SEM for groups of three to four mice. * p<0.05, ** p<0.01, *** p<0.001 compared to Ctrl; ## p<0.01, ### p<0.001 as indicated. Scale bar, 100 μm. […] (FIGS. 13E, 13F) Effect of AA (10 μmol), NG ([…]), and their combination on levels of IFN-γ and granzyme B in supernatant of cultured splenic NK cells with TGF-β1 (5 ng/ml) detected by ELISA. (FIG. 13G) NK cell cytotoxicity assay with LLC as target cells at E:T ratio of 5:1, 10:1 and 20:1. Each error bar represents the mean±SEM for groups of three independent experiments. * p<0.05, ** p<0.01, *** p<0.001 compared to TGF-β1; # p<0.05, ## p<0.01, ### p<0.001 as indicated. Immunofluorescence staining was performed with 5 μm PLP fixed frozen sections of mouse tumor tissue to detect NK cell infiltration in tumor microenvironment and the protein levels of p-Smad3, Smad7, IFN-γ and granzyme B in these tumor infiltrated NK cells. Primary antibodies used for immunofluorescence staining include Alexa488 conjugated anti-mouse NK-1.1 (Biolegend, CA, USA), PE conjugated anti-mouse NKp46 (eBioscience Inc., CA, USA), anti-p-Smad2/3 (Santa Cruz Biotechnology, Santa Cruz, Calif.), anti-Smad7, anti-interferon gamma and anti-granzyme B (Abcam, MA, USA). All slides were mounted with DAPI containing mounting medium then analyzed with fluorescence microscope (Leica Microsystems, Wetzlar, Germany).

Compound | safe dosage selected for use as therapeutic dose ([1]; mouse, in vivo, 2 weeks) | TGF-beta1-induced angiogenesis (VEGF mRNA expression) (B16F10 tumor cells; B16F10 cultured with TGF-beta1 (2 ng/ml), AA at luM) | TGF-β1-increased phosphorylation level of Smad3 (p-Smad3, Smad7) | TGF-β1-induced suppression of Smad7 expression (p-Smad3, Smad7) | TGF-β1-induced suppression of IRF2 (Id2, IRF2) | TGF-β1-induced suppression of Id2 (Id2, IRF2) | systemic toxicity (peripheral white blood cell counts, serum LDH, AST and ALT, creatinine) [2] | inhibitory effect of TGF-β1 on NK cell development (NK1.1+ CD122+) [3] | tumor growth at higher dosages (B16F10 melanoma) | B16F10 melanoma volume and weight (B16F10 melanoma) | melanoma progression (B16F10 melanoma) | NK cell-mediated cytotoxicity against melanoma cells (B16F10 melanoma cells) | IFN-γ-producing NK cells (IFN-γ+ NK1.1+ cells) (NK1.1+ NK cells) | granzyme B-secreting NK cells (GB+ NK1.1+ cells) (NK1.1+ NK cells) | safe dosage selected for use as therapeutic dose ([1]; normal mice treated for two weeks, groups of 4) | TGF-beta1-induced angiogenesis (VEGF mRNA expression), inhibition by AA with NG added (B16F10 tumor cells; B16F10 with TGF-beta1 (2 ng/ml), NG from 0.5 to 250 uM added to AA at luM) | NK1.1+ CD122+ cell (immature NK cells) proportion ([3]; TGF-β1 at 5 ng/ml, 80% without TGF-β1)
C[C@H]1[C@H](C)CC[C@]2(C(=O)O)CC[C@]3(C)C(=CC[C@@H]4[C@@]5(C)C[C@@H](O)[C@H](O)[C@@](C)(CO)[C@@H]5CC[C@]43C)[C@H]12 [AA, Asiatic acid] | 10 mg/kg | significantly inhibit | attenuated | capable of restoring | significantly reduced | significantly reduced | do not cause systemic toxicity | moderately attenuated | no further significant improvement | Dose-dependent inhibitory effect | effectively inhibited | increased | significantly increased | significantly increased |  |  | 
O=C1CC(c2ccc(O)cc2)Oc2cc(O)cc(O)c21 (centres unmarked) [NG, 5,7-dihydroxy-2-(4-hydroxyphenyl)chroman-4-one] |  |  | attenuated | capable of restoring | significantly reduced | significantly reduced | do not cause systemic toxicity | moderately attenuated | no further significant improvement | Dose-dependent inhibitory effect | effectively inhibited | increased | significantly increased | significantly increased | 50 mg/kg | enhanced | 
TGF-β1: cytokine added to NK cell cultures to suppress NK cell development [reference compound] |  |  |  |  |  |  |  |  |  |  |  |  |  |  |  |  | 11%
